# Test results published in patent publication US11401234B2, “Deuterated compounds and uses thereof” (priority 2012, dated 2022).
# Where “and” joins values, the source holds several entries; their conditions need not be identical. Equal entries are not always repeated.
# What was measured:
# 22Rv1 prostate tumours = experiment: Tumour oxygenation (pO2) by Oxylite oxygen electrode probe in xenografts; format: in vivo, SCID mice
# Protocol: • 22Rv1 cells grow as a solid tumour on the backs of SCID mice. • Tumour oxygenation was measured over 28 days in vehicle and bicalutamide (2 mg/kg/day) treated mice (see Table 3 above). • Bicalutamide caused a drop in tumour oxygenation (as shown in FIG. 10); from ˜15.3 mmHg (2% oxygen) to 2.0 mmHg (0.3% oxygen) at day 7 and to 0.5 mmHg (0.1% oxygen) at day 14. […] However, during the subsequent week (probably related to tumour size) the median oxygen levels […] to about 3 mmHg (0.4% oxygen) and do indicate recovery.
# 22Rv1 xenograft tumours = experiment: 22Rv1 xenograft tumour growth (calliper tumour volumes); format: in vivo, SCID mice; conditions: 2 mg/kg/day oral gavage
# Description: (ii) Effect of Bicalutamide on Blood Vessels in 22Rv1 Tumour Xenografts • Dorsal skin folds were secured using window chambers onto the backs of male SCID mice (>8 weeks). […] Tumour volume was normalised to day 6 (ie pre-prodrug addition).
# LNCaP xenograft tumours = experiment: LNCaP xenograft tumour growth (calliper tumour volumes); format: in vivo, SCID mice
# [1] = tested on: Human T cell leukaemia cells (Jurkat); experiment: Inhibition of cell proliferation in air or 1% oxygen (Coulter Counter relative cell number); format: cell-based; conditions: 4 days, range of concentrations
smiles,measurement,setting,value
CC(O)(CS(=O)(=O)c1ccc(F)cc1)C(=O)Nc1ccc(C#N)c(C(F)(F)F)c1 (stereo not drawn) [Bicalutamide],Mean pO2 ± SD,"22Rv1 prostate tumours; day 0 (before commencement of treatment), 2 mg/kg/day oral gavage group, 2 mg/kg/day",15.277 ± 11.254 mmHg
same,tumour oxygenation,"22Rv1 prostate tumours; day 0, 2 mg/kg/day group",2 % oxygen
same,tumour oxygenation,"22Rv1 prostate tumours; day 7, 2 mg/kg/day",0.3 % oxygen
same,Mean pO2 ± SD,"22Rv1 prostate tumours; day 7 of treatment, 2 mg/kg/day oral gavage, 2 mg/kg/day",2.0 mmHg and 1.996 ± 1.989 mmHg
same,tumour oxygenation,"22Rv1 prostate tumours; day 14, 2 mg/kg/day",0.1 % oxygen
same,Mean pO2 ± SD,"22Rv1 prostate tumours; day 14 of treatment, 2 mg/kg/day oral gavage, 2 mg/kg/day",0.5 mmHg and 0.486 ± 0.107 mmHg
same,Mean pO2 ± SD,"22Rv1 prostate tumours; day 21 of treatment, 2 mg/kg/day oral gavage",1.291 ± 0.291 mmHg
same,Mean pO2 ± SD,"22Rv1 prostate tumours; day 28 of treatment, 2 mg/kg/day oral gavage",11.905 ± 0.861 mmHg
same,time to reach four times the volume at the start of treatment,22Rv1 xenograft tumours,18.5 ± 0.8 days
same,Growth Delay,"22Rv1 xenograft tumours; versus vehicle, time to four times start volume",4.5 days
same,Time to 2x start volume,"LNCaP xenograft tumours; bicalutamide 2 mg/kg/day oral 28 days, OCT1002 50 mg/kg i.p. single dose day 7",16.2 ± 1.94 days
same,Growth Delay,"LNCaP xenograft tumours; versus vehicle, time to reach twice the treatment size",5.1 days and 5 ± 3.82 days
"[2H]C([2H])([2H])N(CCNc1ccc(NCCN(C([2H])([2H])[2H])C([2H])([2H])[2H])c2c1C(=O)c1c(O)ccc(O)c1C2=O)C([2H])([2H])[2H] [OCT1001, 1,4-bis-{[2-(deuterated-d6-dimethylamino)ethyl]amino)-5,8-dihydroxy-anthracene-9,10-dione]","loss of intracellular fluorescence attributable to metabolite, compared with AQ4","A549 cells; after 24 h post exposure recovery in drug free medium, normal oxygenation",reduced loss
same,"cellular accumulation of intracellular fluorescence attributable to metabolite, compared with AQ4",A549 cells; after 4 day prodrug exposure under 1% oxygen,reduced cellular accumulation
COc1cc([C@@H]2c3cc4c(cc3[C@@H](O[C@@H]3O[C@@H]5CO[C@@H](C)O[C@H]5[C@H](O)[C@H]3O)[C@H]3COC(=O)[C@H]23)OCO4)cc(OC)c1O [VP-16],"inhibition of cell proliferation (cytostatic activity, relative cell number)",[1],hypoxia does not modify the cytostatic action
